Data as given in patent publication US20240075005A1 (LIGALLI BV, priority 2021, published 2024).
Values joined by “and” are separate entries in the source; they are usually repeats but may differ in a detail not shown here. Equal entries are not always repeated.

Assay: Pharmacokinetic trial: single 3 mg intravaginal dose of oxybutynin HCl delivered by the MedRing vaginal ring, plasma LC/MS/MS
Type: in vivo, human (female subjects)
From the text: This trial investigated the feasibility of pulsed intra-vaginal delivery of oxybutynin and explored systemic exposure after application via the MedRing device.
The trial included female subjects of childbearing potential (women of childbearing potential, WOCBP) aged between 18 and 45 years (inclusive) and female postmenopausal subjects aged between 50 and 69 years (inclusive); Postmenopausal status is defined as age≥50 years and having >12 months amenorrhoea in the absence of hormonal therapy that may cause amenorrhoea.
Subjects began a 4-hour pre-dose fasting period before arriving to the clinic until 2 hours post-dose. Upon arrival, the subjects underwent pre-dose measurements to re-confirm eligibility for the study and to perform baseline measurements. The MedRing was inserted intra-vaginally by medically trained personnel. Water was allowed ad libitum. Subjects underwent blood sampling throughout the day. The MedRing was removed by medical study personnel 2 hours post dose in the first cohort. The MedRing was removed by medical personnel 6 hours post dose in the second cohort. The subjects went home approximately 8 hours post dose. The following day, the subjects of the second cohort returned to the clinic for an ambulant blood sample.
Plasma samples were also used for assessment of the concentrations of the metabolite, N-desethyloxybutynin.

Structure (SMILES) | Area under the concentration-time curve to infinity (AUCinf) in plasma, mean (±SD) (3 mg oxybutynin HCl intravaginal via MedRing) | t1/2, mean (±SD) (3 mg oxybutynin HCl intravaginal via MedRing, plasma) [h] | tmax, median (min-max) (3 mg oxybutynin HCl intravaginal via MedRing, post dose, plasma) | Cmax in plasma, mean (±standard deviation) (3 mg oxybutynin HCl intravaginal via MedRing, single dose, 8 female subjects) [ng/mL] | plasma concentrations relative to known safety window (intravaginal via MedRing) | plasma levels after 22 hours (second cohort (MedRing in situ 6 hours), 22-hour sample) | AUC(0-inf) (female, human, in vivo, 3 mg) [ng·h/mL] | Cmax (female, human, in vivo, 3 mg) [ng/mL] | Tmax (female, human, in vivo, 3 mg) [h] | half-life (female, human, in vivo, 3 mg) [min] | t1/2, mean (±SD) (female, human, in vivo, 3 mg) | tmax, median (min-max) (female, human, in vivo, 3 mg) | plasma levels after 22 hours (female, human, in vivo, 22 h)
CCNCC#CCOC(=O)C(O)(c1ccccc1)C1CCCCC1 (stereo not shown) [N-desethyloxybutynin] | 51.1 (±43.1) | 7.7 | 4 hours and 4 (3-5) hours | 3.9 | well within the known safety window | found in all 4 subjects |  |  |  |  |  |  | 
CCN(CC)CC#CCOC(=O)C(O)(c1ccccc1)C1CCCCC1 (stereo not shown) [oxybutynin] |  |  |  |  |  |  | 34.9 | 5.4 | 2 | 510 | 8.5 (±3.5) hours | 2 (1-5) hours | found in all 4 subjects
